# Where a name gives a salt, the structure may show the parent alone.
# Biological target: T1, AT1 receptor (Rattus norvegicus, UniProt P25095)
# T1 construct: rat liver membranes; from tissue; host or cells: rat liver membranes
# T1 sequence (P25095 1-359): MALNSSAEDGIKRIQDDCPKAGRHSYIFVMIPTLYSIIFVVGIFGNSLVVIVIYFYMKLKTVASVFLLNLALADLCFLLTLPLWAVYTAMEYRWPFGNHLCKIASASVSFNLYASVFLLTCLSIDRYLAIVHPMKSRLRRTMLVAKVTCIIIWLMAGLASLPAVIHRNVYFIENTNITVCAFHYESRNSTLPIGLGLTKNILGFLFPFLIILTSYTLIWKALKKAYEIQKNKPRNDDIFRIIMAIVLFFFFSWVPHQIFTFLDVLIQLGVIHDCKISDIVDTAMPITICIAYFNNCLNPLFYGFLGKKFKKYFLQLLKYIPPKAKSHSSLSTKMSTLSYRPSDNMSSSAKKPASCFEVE
# Assay: [^3 H]angiotensin II binding to rat liver membranes (AT1 test)
# Conditions: inhibition of [^3 H]angiotensin II binding
# Method: The compounds of Formula I or Ia are antagonists of angiotensin II. Dudley, D. T., et al, Molecular Pharmacology 1990;38:370-377 reported the existence of 2 subclasses of angiotensin II binding sites in rabbit adrenal gland and uterus and in the rat liver which differ in their tissue distribution and affinity for various peptide and nonpeptide ligands. Thus, the compounds of Formula I or Ia were tested for their ability to inhibit [^3 H]angiotensin II binding to rat liver membranes (AT1 test) according to the methods described by Dudley, D. T., et al, Molecular Pharmacology 1990;38:370-7. […] It is well established that compounds which antagonize the effect of angiotensin II at the AT1 receptor have value for treatment of hypertension and heart failure.
row,Structure (SMILES),IC50 [nM]
1,"CCCCc1ncc(/C=C2/C(=O)N(CCCC)C(=O)N2Cc2csc(C)n2)n1Cc1ccc(C(=O)O)cc1 [Example 59, Z-4-[[2-butyl-5-[[1-butyl-3-[(2-methyl-4thiazolyl)methyl]-2,5-dioxo-4-imidazolidinylidene]methyl]-1H-imidazol-1-yl]methyl]benzoic acid]",1.21
2,"CCCCc1ncc(/C=C2/C(=O)N(CCCC)C(=O)N2Cc2csc(C)n2)n1Cc1ccc(C(=O)OC)cc1Cl [Example 110, Methyl Z-4-[[2-butyl-5-[[1-butyl-3-[(2-methyl-4-thiazolyl)methyl]-2,5-dioxo-4-imidazolidinylidene[methyl]-1H-imidazol-1-yl]methyl]-3chloro benzoatemonohydrochloride]",2.47
3,"CCCCc1ncc(/C=C2\C(=O)N(CCCC)C(=O)N2Cc2csc(C)n2)n1Cc1ccc(C(=O)O)cc1 [Example 60, E-4-[[2-butyl-5-[[1-butyl-3-[(2-methyl-4-thiazolyl)methyl]-2,5-dioxo-4-imidazolidinylidene]methyl]-1H-imidazol-1-yl]methyl]benzoic acid]",2.63
4,CCCCc1ncc(/C=C2\C(=O)NC(=O)N2CCC(C)C)n1Cc1ccc(C(=O)O)cc1 [Example 2a],9.4
5,"CCCCc1ncc(/C=C2/C(=O)NC(=O)N2Cc2ccc(Cl)cc2)n1Cc1ccc(C(=O)O)cc1 [Example 20b, Z-4-[[2-butyl-5-[[3-[(4-chlorophenyl)methyl]-2,5-dioxo-4-imidazolidinylidene]methyl]-1H-imidazol-1-yl]methyl]benzoic acid]",2.47
6,CCCCc1ncc(/C=C2/C(=O)NC(=O)N2Cc2ccc(OC)c(OC)c2)n1Cc1ccc(C(=O)O)cc1 [Example 21b],89.3
7,"CCCCc1ncc(/C=C2/C(=O)N(COC)C(=O)N2Cc2ccccc2)n1Cc1ccc(C(=O)OC)cc1 [Example 55, Methyl Z-4-[[2-butyl-5-[[1-(methoxymethyl)-2,5-dioxo-3-(phenylmethyl)-4-imidazolidinylidene]methyl]-1H-imidazol-1-yl]methyl]benzoate monohydrochloride]",12.8
8,CCCCc1ncc(/C=C2\C(=O)NC(=O)N2Cc2cccs2)n1Cc1ccc(C(=O)O)cc1 [Example 6a],2.97
9,"CCCCc1ncc(/C=C2\NC(=O)N(CCCC)C2=O)n1Cc1ccc(C2(C(=O)OC)CCCC2)cc1 [Example 83, Methyl Z-1-[4-[[2-butyl-5-[(1-butyl-2,5-dioxo-4-imidazolidinylidene)methyl]-1H-imidazol-1-yl]methyl]phenyl]cyclopentanecarboxylate]",> 1000
10,CCCCc1ncc(/C=C2\C(=O)NC(=O)N2CCCC)n1Cc1ccc(-c2ccccc2-c2nn[nH]n2)cc1 [Example 92],2.72
11,"CCCCCCN1C(=O)N/C(=C\c2cnc(CCCC)n2Cc2ccc(C(=O)OC)cc2)C1=O [Example 47, Methyl ZX-4-[[2-butyl-5-[(1-hexyl-2,5-dioxo-4-imidazolidinylidene)methyl]-1H-imidazol-1-yl]m,ethyl]benzoate]",> 1000
12,CCCCc1ncc(/C=C(/C(=O)O)N(CCCC)C(=O)NCOC)n1Cc1ccc(C(=O)OC)cc1 [Example 98],377
13,"CCCCc1ncc(/C=C2/C(=O)N(CCCC)C(=O)N2CC(=O)c2cccs2)n1Cc1ccc(C(=O)OC)cc1 [Example 103, Methyl Z-4-[[2-butyl-5-[[1-butyl-2,5-dioxo-3-[2-oxo-2-(2-thienyl)ethyl]-4-imidazolidinylidene]methyl]-1H-imidazol-1-yl]methyl]benzoate monochloride]",120
14,CCCCc1ncc(/C=C2\NC(=O)N(COC)C2=O)n1Cc1ccc(C(=O)OC)cc1 [Example 53],> 1000
15,"CCCCc1ncc(C(O)C2C(=O)NC(=O)N2CCCC)n1Cc1ccc(C(=O)OC)cc1 (stereo not drawn) [Example 29, Methyl 4-[[2-butyl-5-[(3-butyl-2,5-dioxo-4-imidazolidinyl)hydroxymethyl]-1H-imidazol-1-yl]methyl]benzoate]",> 1000
16,"CCCCCCN1C(=O)N(CCCC)C(=O)/C1=C/c1cnc(CCCC)n1Cc1ccc(C(=O)OC)cc1 [Example 35, Methyl Z-4-[[2-butyl-5-[(1-butyl-3-hexyl-2,5-dioxo-4-imidazolidinylidene)methyl]-1H-imidazol-1-yl]methyl]benzoate monohydrochloride]",40.2
17,"CCCCc1ncc(/C=C2/C(=O)NC(=O)N2Cc2ccc(Cl)cc2)n1Cc1ccc(C(=O)OC)cc1 [Example 64, Methyl Z-4-[[2-butyl-5-[[3-[(4-chlorophenyl)methyl]-2,5-dioxo-4-imidazolidinylidene]methyl]-1H-imidazol-1-yl]methyl]benzoate monohydrochloride]",4.3

row,Structure (SMILES),IC50 [nM]
1,"CCCCc1ncc(/C=C2/C(=O)N(CCCC)C(=O)N2Cc2ccc(C)s2)n1Cc1ccc(C(=O)O)cc1 [Example 74, Z-4-[[2-butyl-5-[[1-butyl-3-[(5-methyl-2-thienyl)methyl]-2,5-dioxo-4imidazolidinylidene]methyl]-1H-imidazol-1-yl]methyl]benzoic acid]",0.6
2,CCCCc1ncc(/C=C2/C(=O)NC(=O)N2CCC(C)C)n1Cc1ccc(C(=O)O)cc1 [Example 2b],8.8
3,"CCCCc1ncc(/C=C2/C(=O)NC(=O)N2CCCCO)n1Cc1ccc(C(=O)OC)cc1 [Example 17b, (Z)-4-[[2-Butyl-5-[[2,5-dioxo-3-(4-hydroxybutyl)-4-imidazolidinylidene]methyl]-1-H-imidazole-1-yl]methyl]benzoic acid, methyl ester]",49.5
4,CCCCc1ncc(/C=C2\C(=O)NC(=O)N2Cc2ccc(OC)c(OC)c2)n1Cc1ccc(C(=O)O)cc1 [Example 21a],111
5,"CCCCc1ncc(/C=C2/C(=O)N(CCCC)C(=O)N2Cc2nn[nH]n2)n1Cc1ccc(C(=O)OC)cc1 [Example 44, Methyl Z-4-[[2-butyl-5-[[1-butyl-2,5-dioxo-3-(1H-tetrazol-5-ylmethyl)-4-imidazolidinylidene]methyl]-1H-imidazol-1-yl]methyl]benzoate monohydrochloride]",41.7
6,"CCCCc1ncc(/C=C2/C(=O)N(CCCC)C(=O)N2Cc2sccc2C)n1Cc1ccc(C(=O)OC)cc1 [Example 72, Methyl Z-4-[[2-butyl-5-[[1-butyl-3-[(3-methyl-2-thienyl)methyl]-2,5-dioxo-4-imidazolidinylidene]methyl]-1H-imidazol-1-yl]methyl]benzoate hydrochloride]",23.9
7,"CCCCc1ncc(/C=C2/C(=O)N(CCCC)C(=O)N2Cc2cccs2)n1Cc1ccc(C(=O)O)cc1 [Example 75, Z-4-[[2-butyl-5-[[1-butyl-2,5-dioxo-3-(2-thienylmethyl)-4-imidazolidinylidene]methyl]-1H-imidazol-1-yl]methyl]benzoic acid]",0.64
8,"CCCCc1ncc(/C=C2\C(=O)NC(=O)N2CCCC)n1Cc1ccc(NS(=O)(=O)C(F)(F)F)cc1 [Example 71b, E-N-[4-[[2-butyl-5-[(3-butyl-2,5-dioxo-4-imidazolidinylidene)methyl]-1H-imidazol-1-yl]methyl]phenyl]-1,1,1-trifluoromethanesulfonamide]",4.18
9,CCCCc1ncc(/C=C2/C(=O)N(CCCC)C(=O)N2Cc2csc(C)n2)n1Cc1ccc(C2(C(=O)O)CCCC2)cc1 [Example 85],1.86
10,"CCCCc1ncc(CC2C(=O)NC(=O)N2CCCC)n1Cc1ccc(C(=O)O)cc1 (stereo not drawn) [Example 65, 4-[[2-Butyl-5-[(3-butyl-2,5-dioxo-4-imidazolidinyl)methyl]-1H-imidazol-1-yl]methyl]benzoic acid]",200
11,"CCCCc1ncc(/C=C2\C(=O)N(Cc3csc(C)n3)C(=O)N2CCCC)n1Cc1ccc(C(=O)OC)cc1 [Example 86, Methyl E-4-[[2-butyl-5-[[3-butyl-1-[(2-methyl-4-thiazolyl)methyl]-2,5-dioxo-4-imidazolidinylidene]methyl]-1H-imidazol-1-yl]methyl]benzoate dihydrochloride]",4.58
12,"CCCCc1ncc(/C=C2\C(=O)NC(=O)N2CCCC)n1Cc1ccc(-c2nn[nH]n2)cc1 [Example 76b, E-1-Butyl-5-[[2-butyl-3-[[4-(1H-tetrazol-5-yl)phenyl]methyl]-3H-imidazol-4-yl]methylene]-2,4-imidazolidinedione]",2.48
13,"CCCCc1ncc(/C=C2/NC(=O)N(CCCC)C2=O)n1Cc1ccc(C(=O)OC)cc1 [Example 32b, Methyl E-4-[[2-butyl-5-[(1-butyl-2,5-dioxo-4-imidazolidinylidene)methyl]-1H-imidazol-1-yl]methyl]benzoate]",1170
14,CCCCc1ncc(/C=C2/C(=O)NC(=O)N2Cc2ccccc2)n1Cc1ccc(C(=O)O)cc1 [Example 4b],4.17
15,"CCCCc1ncc(/C=C2/C(=O)NC(=O)N2C)n1Cc1ccc(C(=O)O)cc1 [Example 3b, (Z)-4-[[2-Butyl-5-[(2,5-dioxo-3-methyl-4-imidazolidinylidene)methyl]-1H-imidazol-1-yl]methyl]benzoic acid]",83.8
16,"CCCCc1ncc(/C=C2/C(=O)N(CCCC)C(=O)N2CCCC)n1Cc1ccc(C(=O)OC)cc1 [Example 22, Methyl Z-4-[[-2-butyl-5-[(1,3-dibutyl-2,5-dioxo-4-imidazolidinylidene)methyl]-1H -imidazol-1-yl]methyl]benzoate monohydrochloride]",1.67

# Source: patent publication US5436260A, “Angiotensin II receptor antagonists” (Warner-Lambert Company, priority 1994, dated 1995)
